In general, IC50 refers to the midpoint of a concentration-inhibition curve. For orientation: melting point means the temperature of the solid-liquid transition.

For four compounds, IC50 and melting point results are on record in patent US8110585B2, “Bicyclic compound and pharmaceutical use thereof” (Takeda Pharmaceutical Company Limited, priority 2007, dated 2012).

The target of data set [1] is T1, human melatonin 1 receptors (human MT1 receptors) (Homo sapiens, UniProt P48039).
T1 construct: expressed in transfected cells; membrane fraction
Description: Melatonin receptor binding inhibitory test, 2-[125I] Iodomelatonin, MT1. The note with it: membrane fraction of CHO-hMelR7 cells, 25° C. for 2.5 hr, read-out: binding inhibitory activity as IC50 value for MT1.

In data set [2] the target is T2, human melatonin 2 receptors (human MT2 receptors) (Homo sapiens, UniProt P49286).
T2 construct: expressed in transfected cells; membrane fraction
T2 sequence (P49286 1-362): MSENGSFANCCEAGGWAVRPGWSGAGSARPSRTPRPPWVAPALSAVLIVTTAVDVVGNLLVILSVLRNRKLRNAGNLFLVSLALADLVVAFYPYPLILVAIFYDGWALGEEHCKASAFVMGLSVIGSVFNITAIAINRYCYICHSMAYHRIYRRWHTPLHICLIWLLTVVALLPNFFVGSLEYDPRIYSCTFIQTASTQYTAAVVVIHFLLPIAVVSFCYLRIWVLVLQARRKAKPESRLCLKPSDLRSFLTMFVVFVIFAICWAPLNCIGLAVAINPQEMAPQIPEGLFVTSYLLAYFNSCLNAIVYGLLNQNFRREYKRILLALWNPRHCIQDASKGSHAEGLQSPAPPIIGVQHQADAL
Nature of the data set: Melatonin receptor binding inhibitory test, 2-[125I] Iodomelatonin, MT2. Conditions: membrane fraction of CHO-hMT2 cells, 25° C. for 2.5 hr, read-out: binding inhibitory activity as IC50 value for MT2.

T1 sequence (P48039 whole entry): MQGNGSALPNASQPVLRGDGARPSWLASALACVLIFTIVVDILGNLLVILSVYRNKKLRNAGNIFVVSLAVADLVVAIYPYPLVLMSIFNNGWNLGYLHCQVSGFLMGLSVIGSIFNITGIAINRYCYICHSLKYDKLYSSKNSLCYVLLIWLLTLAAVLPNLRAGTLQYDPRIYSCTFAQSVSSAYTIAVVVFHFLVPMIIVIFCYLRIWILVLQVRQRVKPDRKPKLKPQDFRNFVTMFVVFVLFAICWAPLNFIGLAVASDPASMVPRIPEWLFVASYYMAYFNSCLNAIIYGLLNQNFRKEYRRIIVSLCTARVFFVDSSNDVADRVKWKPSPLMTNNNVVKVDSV

Compound `CCC(=O)NCC1CC1c1cccc2nc(C)sc12` (stereo not drawn) [Example 59, N-{[2-(2-methyl-1,3-benzothiazol-7-yl)cyclopropyl]methyl}propanamide] showed a melting point of 59 to 61 °C. Besides, the IC50 in data set [1] is ≤ 100 nM. In addition, in data set [2], the IC50 was ≤ 100 nM.
The compound `CC(=O)NC[C@@H]1C[C@H]1c1c(F)ccc2nn(C)cc12` (relative stereo) [Example 23, trans-N-{[2-(5-fluoro-2-methyl-2H-indazol-4-yl)cyclopropyl]methyl}acetamide] registered a melting point of 157 to 159 °C. Also, in data set [1], the IC50 was ≤ 100 nM. The IC50 in data set [2] was ≤ 100 nM.
`CC(=O)NCC1CC1c1c(-c2cccnc2)ccc2nn(C)cc12` (stereo not drawn) [Example 35, N-{[2-(2-methyl-5-pyridin-3-yl-2H-indazol-4-yl)cyclopropyl]methyl}acetamide] registered a melting point of 136 to 138 °C. Also, the half-maximal inhibitory concentration (IC50) in data set [1] is ≤ 100 nM. The half-maximal inhibitory concentration (IC50) in data set [2] is ≤ 100 nM.
With `CCNC(=O)NC[C@@H]1C[C@H]1c1cccn2nc(C)cc12` (relative stereo) [Example 51, trans-N-ethyl-N′-{[2-(2-methylpyrazolo[1,5-a]pyridin-4-yl)cyclopropyl]methyl}urea], the melting point is 108 to 110 °C. The IC50 in data set [1] is ≤ 100 nM. Besides, in data set [2], the IC50 is ≤ 100 nM.
